This note sets out measurements from patent US10435396B2, “2-substituted indazoles, methods for producing same, pharmaceutical preparations that contain same, and use of same to produce drugs” (Bayer Pharma Aktiengesellschaft, priority 2016, dated 2019).

Sequence of human IRAK4 (Q9NWZ3 whole entry): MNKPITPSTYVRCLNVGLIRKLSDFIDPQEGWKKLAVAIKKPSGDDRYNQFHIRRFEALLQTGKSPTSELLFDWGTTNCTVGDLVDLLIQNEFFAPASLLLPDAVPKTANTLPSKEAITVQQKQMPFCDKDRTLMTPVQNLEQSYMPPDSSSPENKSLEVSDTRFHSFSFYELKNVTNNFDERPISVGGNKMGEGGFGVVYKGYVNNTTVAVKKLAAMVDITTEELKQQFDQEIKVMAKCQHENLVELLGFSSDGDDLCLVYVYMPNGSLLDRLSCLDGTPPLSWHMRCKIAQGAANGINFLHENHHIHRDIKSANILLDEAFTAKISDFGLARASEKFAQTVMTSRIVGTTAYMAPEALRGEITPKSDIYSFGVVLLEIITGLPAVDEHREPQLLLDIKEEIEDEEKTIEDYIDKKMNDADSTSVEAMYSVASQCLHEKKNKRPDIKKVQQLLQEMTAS

One assay deals with human IRAK4 (Homo sapiens (Human), UniProt Q9NWZ3). In words: IRAK4 kinase assay (IRAK4 TR-FRET assay). The format is biochemical. As to conditions: 1 mM ATP. How it is done:
The IRAK4-inhibitory activity of the substances according to the invention was measured in the IRAK4 TR-FRET assay (TR-FRET=Time Resolved Fluorescence Resonance Energy Transfer) described hereinafter.
Recombinant fusion protein from N-terminal GST (glutathione S-transferase) and human IRAK4, expressed in baculovirus-infected insect cells (Hi5, BTI-TN-5B1-4, cell line purchased from Invitrogen, catalogue No. B855-02) and purified via affinity chromatography, was used as enzyme. The substrate used for the kinase reaction was the biotinylated peptide biotin-Ahx-[…] (C-terminus in amide form) which can be purchased, for example, from Biosyntan GmbH (Berlin-Buch).
For the assay, 11 different concentrations in the range from 20 μM to 0.073 nM were prepared from a 2 mM solution of the test substance in DMSO. 50 nl of the respective solution were pipetted into a black low-volume 384-well microtitre plate (Greiner Bio-One, Frickenhausen, Germany), 2 μl of a solution of IRAK4 in assay buffer [50 mM HEPES pH 7.5, 5 mM MgCl2, 1.0 mM dithiothreitol, 30 μM activated sodium orthovanadate, 0.1% (w/v) of bovine gamma-globulin (BGG) 0.04% (v/v) nonidet-P40 (Sigma)] were added and the mixture was incubated for 15 min to allow prebinding of the substances to the enzyme prior to the kinase reaction. The kinase reaction was then started by addition of 3 μl of a solution of adenosine triphosphate (ATP, 1.67 mM=final concentration in 5 μl of assay volume: 1 mM) and peptide substrate (0.83 μM=final concentration in 5 μl assay volume: 0.5 μM) in assay buffer, and the resulting mixture was incubated at 22° C. for the reaction time of 45 min. The concentration of the IRAK4 was adjusted to the respective activity of the enzyme and set such that the assay was carried out in the linear range. Typical concentrations were in the order of about 0.2 nM. The reaction was stopped by addition of 5 μl of a solution of TR-FRET detection reagents [0.1 μM streptavidin-XL665 (Cisbio Bioassays; France, catalogue No. 610SAXLG)] and 1.5 nM anti-phosphoserine antibody [Merck Millipore, “STK Antibody”, catalogue No. 35-002] and 0.6 nM LANCE EU-W1024-labelled anti-mouse-IgG antibody (Perkin-Elmer, product No. AD0077; alternatively, it is possible to use a terbium cryptate-labelled anti-mouse-IgG antibody from Cisbio Bioassays) in aqueous EDTA solution (100 mM EDTA, 0.4% [w/v] bovine serum albumin [BSA] in 25 mM HEPES pH 7.5).
The resulting mixture was incubated at 22° C. for 1 h to allow formation of a complex of the biotinylated phosphorylated substrate and the detection reagents. The amount of the phosphorylated substrate was then evaluated by measuring the resonance energy transfer from europium chelate-labelled anti-mouse-IgG antibody to streptavidin-XL665. To this end, the fluorescence emissions at 620 nm and 665 nm were measured after excitation at 350 nm in a TR-FRET measuring instrument, for example a Rubystar (BMG Labtechnologies, Offenburg, Germany) or a Viewlux (Perkin-Elmer). The ratio of the emissions at 665 nm and 622 nm was taken as a measure of the amount of phosphorylated substrate. The data were normalized (enzyme reaction without test substance=0% inhibition; all other assay components but no enzyme=100% inhibition). Typically, the test substances were tested on the same microtitre plates at 11 different concentrations in the range from 20 μM to 0.073 nM (20 μM, 5.7 μM, 1.6 μM, 0.47 μM, 0.13 μM, 38 nM, 11 nM, 3.1 nM, 0.89 nM, 0.25 nM and 0.073 nM). The dilution series were prepared prior to the assay (2 mM to 7.3 nM in 100% DMSO) by serial dilutions. The IC50 values were calculated using a 4-parameter fit.
On the technique in general: TR-FRET usually uses a lanthanide donor and a delayed reading to cut background.
What is called IC50 is the concentration that gives 50% inhibition. With `COc1cc2nn([C@H]3C[C@@H]4C[C@H]3CN4C)cc2cc1NC(=O)c1cccc(C(F)(F)F)n1` (relative stereo) [Example 19, rel-N-{6-Methoxy-2-[(1S,4S,5S)-2-methyl-2-azabicyclo[2.2.1]hept-5-yl]-2H-indazol-5-yl}-6-(trifluoromethyl)pyridine-2-carboxamide], the IC50 is 9 nM.

As for `COc1cc2nn(C3CCN(CC(F)(F)F)CC3)cc2cc1NC(=O)c1cccc(C(F)(F)F)n1` [Example 3, N-{6-Methoxy-2-[1-(2,2,2-trifluoroethyl)piperidin-4-yl]-2H-indazol-5-yl}-6-(trifluoromethyl)pyridine-2-carboxamide], the IC50 worked out at 7 nM. The molecule `COc1cc2nn(C3CCN(C4CCN(C)CC4)CC3)cc2cc1NC(=O)c1cccc(C(F)(F)F)n1` [Example 6, N-[6-Methoxy-2-(1′-methyl-1,4′-bipiperidin-4-yl)-2H-indazol-5-yl]-6-(trifluoromethyl)pyridine-2-carboxamide] registered an IC50 of 2 nM. Same read-out and setting: in the case of `COc1cc2nn(C3CCN(S(=O)(=O)NC(C)=O)CC3)cc2cc1NC(=O)c1cccc(C(F)(F)F)n1` [Example 8, N-{2-[1-(Acetylsulphamoyl)piperidin-4-yl]-6-methoxy-2H-indazol-5-yl}-6-(trifluoromethyl)pyridine-2-carboxamide] it was 8 nM. Same read-out and setting: under `COc1cc2nn(C3CCN(CCN(C)C)CC3)cc2cc1NC(=O)c1cccc(C(F)(F)F)n1` [Example 9, N-(2-{1-[2-(Dimethylamino)ethyl]piperidin-4-yl}-6-methoxy-2H-indazol-5-yl)-6-(trifluoromethyl)pyridine-2-carboxamide] stands 1 nM; under `COc1cc2nn(C3CCS(=O)(=O)CC3)cc2cc1NC(=O)c1cccc(C(F)(F)F)n1` [Example 11, N-[2-(1,1-Dioxidotetrahydro-2H-thiopyran-4-yl)-6-methoxy-2H-indazol-5-yl]-6-(trifluoromethyl)pyridine-2-carboxamide], 3 nM; under `CC(C)(O)c1cc2nn([C@H]3CCS(=O)(=O)C3)cc2cc1NC(=O)c1cccc(C(F)(F)F)n1` [Example 41, N-{2-[(3S)-1,1-Dioxidotetrahydrothiophen-3-yl]-6-(2-hydroxypropan-2-yl)-2H-indazol-5-yl}-6-(trifluoromethyl)pyridine-2-carboxamide], 16 nM. On to `COc1cc2nn(C3CCOCC3)cc2cc1NC(=O)c1nc(C(F)(F)F)cs1` [Example 47, N-[6-Methoxy-2-(tetrahydro-2H-pyran-4-yl)-2H-indazol-5-yl]-4-(trifluoromethyl)-1,3-thiazole-2-carboxamide], for which half-maximal inhibition (IC50) required 65 nM. For the molecule `COc1cc2nn(C3CCOCC3)cc2cc1NC(=O)c1nc(-c2ccncc2)no1` [Example 48, N-[6-Methoxy-2-(tetrahydro-2H-pyran-4-yl)-2H-indazol-5-yl]-3-(pyridin-4-yl)-1,2,4-oxadiazole-5-carboxamide], the midpoint of inhibition, the IC50, lay at 691 nM. Same read-out and setting: under `COc1cc2nn(C3CCOCC3)cc2cc1NC(=O)c1nc(C)no1` [Example 49, N-[6-Methoxy-2-(tetrahydro-2H-pyran-4-yl)-2H-indazol-5-yl]-3-methyl-1,2,4-oxadiazole-5-carboxamide] stands 3780 nM. Still for that read-out and setting: in the case of `O=C(Nc1cc2cn(C3CCOCC3)nc2cc1Cl)c1nc(C(F)(F)F)cs1` [Example 50, N-[6-Chloro-2-(tetrahydro-2H-pyran-4-yl)-2H-indazol-5-yl]-4-(trifluoromethyl)-1,3-thiazole-2-carboxamide] it was 496 nM; in that of `COc1cc2nn(C3CCOCC3)cc2cc1NC(=O)c1ccn(C(F)F)n1` [Example 51, 1-(Difluoromethyl)-N-[6-methoxy-2-(tetrahydro-2H-pyran-4-yl)-2H-indazol-5-yl]-1H-pyrazole-3-carboxamide], 6 nM. In the case of `NC(=O)c1cc2nn(C3CCNCC3)cc2cc1NC(=O)c1cccc(C(F)(F)F)n1` [Example 53, 2-(Piperidin-4-yl)-5-({[6-(trifluoromethyl)pyridin-2-yl]carbonyl}amino)-2H-indazole-6-carboxamide], 1 nM corresponded to half-maximal inhibition (IC50). Molecule `O=C(Nc1cc2cn(C3CCNCC3)nc2cc1C(=O)O)c1cccc(C(F)(F)F)n1` [Example 54, 2-(Piperidin-4-yl)-5-({[6-(trifluoromethyl)pyridin-2-yl]carbonyl}amino)-2H-indazole-6-carboxylic Acid] yielded an IC50 of 75 nM.

As for `COC(=O)c1cc2nn(C3CCN(C)CC3)cc2cc1NC(=O)c1cccc(C(F)(F)F)n1` [Example 55, Methyl 2-(1-methylpiperidin-4-yl)-5-({[6-(trifluoromethyl)pyridin-2-yl]carbonyl}amino)-2H-indazole-6-carboxylate], the IC50 was found to be 1 nM. Turning to `CC(C)(O)CCN1CCC(n2cc3cc(NC(=O)c4cccc(C(F)(F)F)n4)c(C(N)=O)cc3n2)CC1` [Example 56, 2-[1-(3-Hydroxy-3-methylbutyl)piperidin-4-yl]-5-({[6-(trifluoromethyl)pyridin-2-yl]carbonyl}amino)-2H-indazole-6-carboxamide], the IC50 turned out to be 4 nM. `CN1CCC(n2cc3cc(NC(=O)c4cccc(C(F)(F)F)n4)c(C(N)=O)cc3n2)CC1` [Example 57, 2-(1-Methylpiperidin-4-yl)-5-({[6-(trifluoromethyl)pyridin-2-yl]carbonyl}amino)-2H-indazole-6-carboxamide] gave an IC50 of 2 nM. Take `COCCN1CCC(n2cc3cc(NC(=O)c4cccc(C(F)(F)F)n4)c(OC)cc3n2)CC1` [Example 58, N-{6-Methoxy-2-[1-(2-methoxyethyl)piperidin-4-yl]-2H-indazol-5-yl}-6-(trifluoromethyl)pyridine-2-carboxamide]: half-maximal inhibition (IC50) was put at 2 nM.

The next assay concerns secretion of TNF-α in THP-1 cells. As to the kind of experiment: TNF-α secretion in THP-1 cells (LPS-triggered). It is filed as cell-based, human. As to conditions: Homo sapiens, THP-1, 17 h, LPS 0.05 μg/ml, read-out: IC50 with respect to the secretion of TNF-α in THP-1 cells. How it is done:
TNF-α Secretion in THP-1 Cells
With the aid of this test, it is possible to test substances for their ability to inhibit secretion of TNF-α (tumour necrosis factor alpha) in THP-1 cells (human monocytic acute leukaemia cell line). TNF-α is a cytokine involved in inflammatory processes. In this test, TNF-α secretion is triggered by incubation with bacterial lipopolysaccharide (LPS).
THP-1 cells are kept in continuous suspension cell culture [RPMI 1460 medium with L-Glutamax (Gibco, Cat No. 61870-044) supplemented with foetal calf serum (FCS) 10% (Invitrogen, Cat No. 10082-147), 1% penicillin/streptomycin (Gibco BRL, Cat No. 15140-114)] and should not exceed a cell concentration of 1×10^6 cells/ml. The assay is carried out in cell culture medium (RPMI 1460 medium with L-Glutamax supplemented with FCS 10%).
In each case 2-2.5 μl of the cell suspension (corresponds to 4000 cells) per well were dispensed into a 384-well test plate (Greiner, Cat No. 784076), in each of which 40-50 nl substance had been dissolved in 100% DMSO. This was done using […] in the range from 20 μM to 0.073 nM for each substance. The cells were incubated at room temperature for 15 min. 2-2.5 μl of 0.1 μg/ml LPS (Sigma, Escherichia coli 055:B5, Cat. No. L5418) dissolved in cell culture medium (final concentration 0.05 μg/ml) were then dispensed into each well. As neutral control, cells were treated with 0.05 μg/ml LPS and 1% DMSO and, as inhibitor control, with 1% DMSO only.
The plates were centrifuged at 80 g for 30 s and incubated at 37° C., 5% CO2 and 95% atmospheric humidity for 17 h. The amount of TNF-α was determined using the TNF-alpha HTRF Detection Kit (Cisbio, Cat No. 62TNFPEB/C). To this end, 2 μl of the detection solution in each case, consisting of anti-TNF-α-XL665 conjugate and anti-TNF-α-cryptate conjugate dissolved in the reconstitution buffer in accordance with the manufacturer's instructions, were added for the HTRF (Homogeneous Time-Resolved Fluorescence) test. After the addition, the mixture was incubated either at room temperature for 3 h or at 4° C. overnight. The signals were then read at 620/665 nm using an HTRF-enabled measuring instrument such as the BMG PheraStar.
The activity of the substances is expressed as the ratio between neutral and inhibitor control in percent. The IC50 values were calculated using a 4-parameter fit.
For the molecule `COc1cc2nn([C@H]3C[C@@H]4C[C@H]3CN4C)cc2cc1NC(=O)c1cccc(C(F)(F)F)n1` (relative stereo) [Example 19, rel-N-{6-Methoxy-2-[(1S,4S,5S)-2-methyl-2-azabicyclo[2.2.1]hept-5-yl]-2H-indazol-5-yl}-6-(trifluoromethyl)pyridine-2-carboxamide], the IC50 was 190 nM. Take `COc1cc2nn(C3CCN(CC(F)(F)F)CC3)cc2cc1NC(=O)c1cccc(C(F)(F)F)n1` [Example 3, N-{6-Methoxy-2-[1-(2,2,2-trifluoroethyl)piperidin-4-yl]-2H-indazol-5-yl}-6-(trifluoromethyl)pyridine-2-carboxamide]: the IC50 came to 750 nM. As to `COc1cc2nn(C3CCN(S(=O)(=O)NC(C)=O)CC3)cc2cc1NC(=O)c1cccc(C(F)(F)F)n1` [Example 8, N-{2-[1-(Acetylsulphamoyl)piperidin-4-yl]-6-methoxy-2H-indazol-5-yl}-6-(trifluoromethyl)pyridine-2-carboxamide], the concentration for half-maximal inhibition (IC50) came out at 520 nM.
